Test results from patent US20090030086A1, “ANTIMICROBIAL AGENTS” (priority 2005, published 2009).
Converted amounts (≈) assume the structure as drawn.

Legend:
S. aureus ATCC 29213 [1] = experiment: MBC assay; format: cell-based, Staphylococcus aureus; conditions: for MBC: Staphylococcus aureus, ATCC29213
Description: (§1) The staphylococci and enterococci were cultured and maintained on Mueller-Hinton Medium (agar and broth) at pH 7.2; they were incubated aerobically at 37° C. for 24 hours.
(§2) This assay, normally carried out after an MIC assay, determines the minimum concentration of a compound that is lethal to the micro-organism being tested.
(§3) These samples were then individually sub-cultured on non-selective agar medium, under the incubation conditions described above. Following incubation they were examined visually for bacterial growth.
(§4) The following experiments all used S. aureus ATCC 29213 as the test organism. MIC, MBC and DDA assays, as described above, were carried out using a range of different benzoquinones and hydroquinones. Supplemented DDA assays, in the presence of salt, lipid and blood, were also conducted.

S. aureus ATCC 29213 [2] = experiment: Supplemented disc diffusion assay; format: cell-based, Staphylococcus aureus; conditions: Staphylococcus aureus, ATCC29213, 24 h
Description: as §1
(§5) A sterile paper disc was impregnated with a sample of the test compound and a minimum of 30 minutes allowed for the solvents to evaporate as far as possible. The disc was then placed on an agar plate onto which the test micro-organism had been inoculated. The plate was then incubated under the conditions described above, following which it was examined visually for signs of bacterial growth. […] The diameter of this zone of “inhibition” was measured using a ProtoCOL™ automated zone sizer (Synbiosis, Cambridge, UK).
(§6) Performance under these conditions can provide a more reliable indication of activity on topical application. For assays conducted using S. aureus strains, the supplements were defibrinated horse blood (5% v/v), lipid (Tween™ 80 at 1% v/v) and sodium chloride (100 mM). For those using Propionibacterium spp. strains, the supplements were lipid (Tween™ 80 at 1% v/v) and sodium chloride (100 mM).
as §4
(§7) For most DDA assays, 200 μg of each compound was loaded onto each disc.

P. acnes NCTC 737 [3] = experiment: MIC assay; format: cell-based, Propionibacterium acnes
Description: 2. Propionibacterium spp.—the principal propionibacterial strain used in these studies was Propionibacterium acnes NCTC 737.
(§8) The Propionibacterium spp organisms were cultured and maintained on Wilkins-Chalgren Anaerobe Medium (agar and broth) at pH 6.0; cultures were incubated anaerobically at 37° C. for 72 hours.
(§9) This is a standard international method for quantitatively assessing the antimicrobial activity of a compound in a liquid medium. The method used a 96-well microtitre plate, capable of holding about 200 μl of liquid per well. […] The culture media were as described above for the relevant test organisms.
(§10) The wells were inoculated with a liquid suspension of freshly grown micro-organism and incubated under the conditions described above. After incubation, the microtitre plate was examined visually (with the aid of a light box) for cloudiness in each well, which would indicate microbial growth. The MIC value was recorded as the lowest concentration of test compound required to inhibit microbial growth, i.e., the lowest concentration for which the liquid in the well remained clear.
(§11) The assays were conducted in duplicate and included both negative (culture medium only) and positive (culture medium, diluting solvent and inoculum) controls.
(§12) MIC, MBC and DDA assays, as described above, were carried out using a range of different benzoquinones and hydroquinones. Supplemented DDA assays, in the presence of salt and lipid, were also conducted.

S. aureus ATCC 29213 [4] = experiment: Disc diffusion assay (DDA); format: cell-based, Staphylococcus aureus; conditions: for zone of inhibition at 200 µg/disc: Staphylococcus aureus, ATCC29213, read-out: DDA (diameter of zone of inhibition)
Description: as §1, §5
(§13) The area of the zone of inhibition was calculated from the measured zone diameter (D) using the formula π(D/2)^2.
as §7

P. acnes NCTC 737 [5] = experiment: MBC assay; format: cell-based, Propionibacterium acnes; conditions: for MBC: Cutibacterium acnes, NCTC737; for MIC/MBC ratio: P. acnes NCTC 737
Description: as §8, §2, §3, §12

P. acnes NCTC 737 [6] = experiment: Supplemented disc diffusion assay; format: cell-based, Propionibacterium acnes; conditions: for zone of inhibition at 200 µg/disc: Cutibacterium acnes, NCTC737, 72 h
Description: as §8, §5, §6, §12, §7

P. acnes NCTC 737 [7] = experiment: Disc diffusion assay (DDA); format: cell-based, Propionibacterium acnes; conditions: for zone of inhibition at 200 µg/disc: Cutibacterium acnes, NCTC737, read-out: DDA (diameter of zone of inhibition)
Description: as §8, §5, §13, §7

S. aureus ATCC 29213 [8] = experiment: MIC assay; format: cell-based, Staphylococcus aureus
Description: 1. Staphylococcus aureus—the principal staphylococcal test micro-organism used in these studies was Staphylococcus aureus ATCC 29213. This strain is the one recommended for QC/QA purposes in Minimum Inhibitory Concentration (MIC) assays by the US Clinical and Laboratory Standards Institute (formerly the NCCLS), an FDA-recognised body.
as §1, §9, §10, §11, §4

[9] = Cutibacterium acnes, NCTC737, 72 h, pH 6
[10] = Staphylococcus aureus, ATCC29213, 24 h, pH 7.2

In the case of `CC1=CC(=O)C=CC1=O` [2-methyl-p-benzoquinone], the MIC/MBC ratio (S. aureus ATCC 29213 [1]) is reported as 1, the MBC (S. aureus ATCC 29213 [1]) is reported as 15.6 µg/mL (≈ 128 µM) and the zone of inhibition at 200 µg/disc (S. aureus ATCC 29213 [2]; read-out: DDA + blood) is reported as 15.9 mm. For the same molecule, the zone of inhibition at 200 µg/disc (S. aureus ATCC 29213 [2]; read-out: DDA + lipid) was 35.6 mm, the zone of inhibition at 200 µg/disc (S. aureus ATCC 29213 [2]; read-out: DDA + salt) was 35 mm and the “activity against P. acnes NCTC 737 (in words)” value (P. acnes NCTC 737 [3]) was “strongly so”. The MIC (P. acnes NCTC 737 [3]; [9]) was 15.6 µg/mL (≈ 128 µM), the zone of inhibition at 200 µg/disc (S. aureus ATCC 29213 [4]) was 35.1 mm and the MBC (P. acnes NCTC 737 [5]) was 31.2 µg/mL (≈ 256 µM). It also gave an MIC/MBC ratio (P. acnes NCTC 737 [5]) of 0.5, a zone of inhibition at 200 µg/disc (P. acnes NCTC 737 [6]; read-out: DDA + lipid) of 48.9 mm and a zone of inhibition at 200 µg/disc (P. acnes NCTC 737 [6]; read-out: DDA + salt) of 42.6 mm. The “effect of lipid on antimicrobial activity” value (P. acnes NCTC 737 [6]; P. acnes NCTC 737, activity increases in the presence of lipid) was “potentiated”, the zone of inhibition at 200 µg/disc (P. acnes NCTC 737 [7]) was 35.9 mm and the MIC (S. aureus ATCC 29213 [8]; [10]) was 15.6 µg/mL (≈ 128 µM).

`Cc1cc(O)c(C)c(O)c1` [2,5-dimethylresorcinol] was tested, and the MIC/MBC ratio (S. aureus ATCC 29213 [1]) was under 0.06, the MBC (S. aureus ATCC 29213 [1]) was over 250 µg/mL and the zone of inhibition at 200 µg/disc (S. aureus ATCC 29213 [2]; read-out: DDA + blood) was 0 mm. The zone of inhibition at 200 µg/disc (S. aureus ATCC 29213 [2]; read-out: DDA + lipid) was 13.8 mm, the zone of inhibition at 200 µg/disc (S. aureus ATCC 29213 [2]; read-out: DDA + salt) was 16.9 mm and the MIC (P. acnes NCTC 737 [3]; [9]) was 3.9 µg/mL (≈ 28.2 µM). For the same molecule, the zone of inhibition at 200 µg/disc (S. aureus ATCC 29213 [4]) was 16.7 mm, the MBC (P. acnes NCTC 737 [5]) was 31.2 µg/mL (≈ 226 µM) and the MIC/MBC ratio (P. acnes NCTC 737 [5]) was 0.125. For the same molecule, the zone of inhibition at 200 µg/disc (P. acnes NCTC 737 [6]; read-out: DDA + lipid) was 0 mm, the zone of inhibition at 200 µg/disc (P. acnes NCTC 737 [6]; read-out: DDA + salt) was 0 mm and the zone of inhibition at 200 µg/disc (P. acnes NCTC 737 [7]) was 0 mm. The MIC (S. aureus ATCC 29213 [8]; [10]) was 15.6 µg/mL (≈ 113 µM).

In the case of `CC1=C(Br)C(=O)C(C(C)C)=C(Br)C1=O` [2,5-dibromo-6-isopropyl-3-methyl-p-benzoquinone], the MIC/MBC ratio (S. aureus ATCC 29213 [1]) is reported as 0.5, the MBC (S. aureus ATCC 29213 [1]) is reported as 1.95 µg/mL (≈ 6.06 µM) and the zone of inhibition at 200 µg/disc (S. aureus ATCC 29213 [2]; read-out: DDA + blood) is reported as 19.3 mm. The zone of inhibition at 200 µg/disc (S. aureus ATCC 29213 [2]; read-out: DDA + lipid) was 23 mm, the zone of inhibition at 200 µg/disc (S. aureus ATCC 29213 [2]; read-out: DDA + salt) was 42.3 mm and the “activity against P. acnes NCTC 737 (in words)” value (P. acnes NCTC 737 [3]) was “strongly so”. It also gave an MIC (P. acnes NCTC 737 [3]; [9]) of 0.98 µg/mL (≈ 3.04 µM), a zone of inhibition at 200 µg/disc (S. aureus ATCC 29213 [4]) of 39.5 mm and an MBC (P. acnes NCTC 737 [5]) of 3.9 µg/mL (≈ 12.1 µM). It also gave an MIC/MBC ratio (P. acnes NCTC 737 [5]) of 0.25, a zone of inhibition at 200 µg/disc (P. acnes NCTC 737 [6]; read-out: DDA + lipid) of 34.7 mm and a zone of inhibition at 200 µg/disc (P. acnes NCTC 737 [6]; read-out: DDA + salt) of 71.2 mm. The zone of inhibition at 200 µg/disc (P. acnes NCTC 737 [7]) was over 90 mm, the “activity against S. aureus ATCC 29213 (in words)” value (S. aureus ATCC 29213 [8]) was “strongly so” and the MIC (S. aureus ATCC 29213 [8]; [10]) was 0.98 µg/mL (≈ 3.04 µM).

`COC1=CC(=O)C=C(OC)C1=O` [2,6-dimethoxy-p-benzoquinone] showed an MIC/MBC ratio (S. aureus ATCC 29213 [1]) of 0.5, an MBC (S. aureus ATCC 29213 [1]) of 15.6 µg/mL (≈ 92.8 µM) and a zone of inhibition at 200 µg/disc (S. aureus ATCC 29213 [2]; read-out: DDA + blood) of 17.2 mm. It also gave a zone of inhibition at 200 µg/disc (S. aureus ATCC 29213 [2]; read-out: DDA + lipid) of 23.7 mm, a zone of inhibition at 200 µg/disc (S. aureus ATCC 29213 [2]; read-out: DDA + salt) of 22.2 mm and an MIC (P. acnes NCTC 737 [3]; [9]) of 15.6 µg/mL (≈ 92.8 µM). For the same molecule, the zone of inhibition at 200 µg/disc (S. aureus ATCC 29213 [4]) was 22.2 mm, the MBC (P. acnes NCTC 737 [5]) was 31.2 µg/mL (≈ 186 µM) and the MIC/MBC ratio (P. acnes NCTC 737 [5]) was 0.5. The zone of inhibition at 200 µg/disc (P. acnes NCTC 737 [6]; read-out: DDA + lipid) was 15.6 mm, the zone of inhibition at 200 µg/disc (P. acnes NCTC 737 [6]; read-out: DDA + salt) was 16.5 mm and the zone of inhibition at 200 µg/disc (P. acnes NCTC 737 [7]) was 0 mm. The “activity against S. aureus ATCC 29213 (in words)” value (S. aureus ATCC 29213 [8]) was “strongly so” and the MIC (S. aureus ATCC 29213 [8]; [10]) was 7.8 µg/mL (≈ 46.4 µM).

In the case of `CCc1cc(O)ccc1O` [2-ethyl-p-hydroquinone], the MIC/MBC ratio (S. aureus ATCC 29213 [1]) is reported as 0.5, the MIC (P. acnes NCTC 737 [3]; P. acnes NCTC 737, Wilkins-Chalgren broth pH 6.0, anaerobic, 37° C., 72 hours) is reported as 7.8 µg/mL (≈ 56.5 µM) and the “DDA (diameter of zone of inhibition)” value (S. aureus ATCC 29213 [4]; S. aureus ATCC 29213, unsupplemented agar, 200 μg per disc (thymoquinone 50 μg, 2,6-dimethoxy-p-benzoquinone 100 μg)) is reported as 21.06 mm. The MIC/MBC ratio (P. acnes NCTC 737 [5]) was 0.25, the “DDA + lipid” value (P. acnes NCTC 737 [6]; P. acnes NCTC 737, Tween 80 at 1% v/v, 200 μg per disc (2,6-dimethoxy-p-benzoquinone 100 μg)) was 0.0 mm and the “DDA (diameter of zone of inhibition)” value (P. acnes NCTC 737 [7]; P. acnes NCTC 737, unsupplemented agar, 200 μg per disc (2,6-dimethoxy-p-benzoquinone 100 μg)) was 9.90 mm. The MIC (S. aureus ATCC 29213 [8]; S. aureus ATCC 29213, Mueller-Hinton broth pH 7.2, aerobic, 37° C., 24 hours) was 7.8 µg/mL (≈ 56.5 µM).
